Measured values from patent EP1142881A1, “POLY(ADP-RIBOSE) POLYMERASE INHIBITORS CONSISTING OF PYRIMIDINE DERIVATIVES” (Meiji Seika Kaisha, Ltd., priority 1999, dated 2000).

These compounds were tested against T1, PARP (Rattus norvegicus, UniProt P27008) (assay: Measurement of PARP enzyme activity). Settings: soluble nuclear fraction of Wistar rat forebrain as enzyme source; 250 µM NAD, 32P-NAD; 37°C for 30 minutes; 6 concentrations; read-out: PARP inhibitory activity IC50.
T1 construct: Nucleus obtained by centrifugation was extracted with 0.4 M NaCl and the resulting soluble fraction was used as a source of PARP enzyme; from tissue; host or cells: Wistar rat forebrain, nuclear 0.4 M NaCl soluble fraction
T1 sequence (P27008 whole entry): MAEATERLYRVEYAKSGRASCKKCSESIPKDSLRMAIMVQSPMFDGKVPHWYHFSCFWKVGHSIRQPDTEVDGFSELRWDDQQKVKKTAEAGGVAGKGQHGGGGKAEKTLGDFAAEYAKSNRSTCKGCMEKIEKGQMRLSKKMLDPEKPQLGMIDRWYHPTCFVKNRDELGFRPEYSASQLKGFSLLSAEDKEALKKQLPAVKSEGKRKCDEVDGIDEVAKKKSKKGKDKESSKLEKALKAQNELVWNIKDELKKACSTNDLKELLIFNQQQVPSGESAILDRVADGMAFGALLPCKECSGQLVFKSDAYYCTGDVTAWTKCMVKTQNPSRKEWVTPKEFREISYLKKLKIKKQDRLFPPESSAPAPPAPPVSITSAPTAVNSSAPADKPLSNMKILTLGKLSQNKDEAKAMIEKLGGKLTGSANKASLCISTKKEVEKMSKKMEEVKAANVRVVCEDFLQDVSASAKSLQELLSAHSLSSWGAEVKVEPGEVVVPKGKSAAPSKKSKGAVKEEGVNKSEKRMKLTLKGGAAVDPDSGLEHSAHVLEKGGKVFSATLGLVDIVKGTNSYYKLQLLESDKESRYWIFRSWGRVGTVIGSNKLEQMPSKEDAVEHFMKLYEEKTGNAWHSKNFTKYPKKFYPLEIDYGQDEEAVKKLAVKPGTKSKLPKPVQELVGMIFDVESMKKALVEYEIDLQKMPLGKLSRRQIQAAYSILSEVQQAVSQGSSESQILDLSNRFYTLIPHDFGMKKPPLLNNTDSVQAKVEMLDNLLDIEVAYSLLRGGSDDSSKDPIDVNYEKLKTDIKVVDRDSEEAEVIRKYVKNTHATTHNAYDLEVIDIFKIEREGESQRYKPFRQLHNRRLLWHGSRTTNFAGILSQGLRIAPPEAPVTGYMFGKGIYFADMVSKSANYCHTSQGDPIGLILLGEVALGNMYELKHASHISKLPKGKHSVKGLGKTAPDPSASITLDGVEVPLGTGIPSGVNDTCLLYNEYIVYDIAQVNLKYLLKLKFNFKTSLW
Type: biochemical, Wistar rats
Description: Test method: The forebrain was collected from Wistar rats and homogenized. Nucleus obtained by centrifugation was extracted with 0.4 M NaCl and the resulting soluble fraction was used as a source of PARP enzyme source. […] Incubation was carried out at 37°C for 30 minutes, and then the reaction was stopped with 20%trichloroacetic acid. The acid-insoluble fraction produced above was adsorbed to a GF/B filter, and the filter was washed several times, and then radioactivity on the filter was measured by using a liquid scintillation counter. The PARP activity was measured by subtracting radioactivity as a blank value of a sample not added with the enzyme source. […]
C=C1CSCc2c1nc(C)[nH]c2=O [Example 20, 2-Methyl-8-methylene-3,5,7,8-tetrahydrothiopyrano[4,3-d]pyrimidin-4-one] showed an IC50 of 250 nM. For O=c1[nH]c(-c2ccccc2)nc2c1CSCC2 [Example 4, 2-Phenyl-3,5,7,8-tetrahydrothiopyrano[4,3-d]pyrimidin-4-one], the IC50 was 410 nM. Compound O=c1[nH]cnc2c1CSCC2 [Example 3, 3,5,7,8-Tetrahydrothiopyrano[4,3-d]pyrimidin-4-one] has an IC50 of 1460 nM. COCC=C1CSCc2c1nc(C)[nH]c2=O [Example 39, 8-(2-Methoxyethylidene)-2-methyl-3,5,7,8-tetrahydrothiopyrano-[4,3-d]pyrimidin-4-one] was tested, and the IC50 was 440 nM. For C=C1CCCc2c1nc(C)[nH]c2=O [Example 21(A), 2-Methyl-8-methylene-5,6,7,8-tetrahydro-3H-quinazolin-4-one], the IC50 was 350 nM.
